How the values were obtained:
Beta-secretase 1 = Beta-secretase 1 (Homo sapiens, UniProt P56817); assay: Inhibition of BACE-1
P-gp = assay: (§1) Apparent permeability in human Caco-2 cells assessed as Pgp efflux ratio from basolateral to apical side to apical to basolateral side; format: ADME, cell-based
Caco-2 = assay: as §1; format: ADME, cell-based

Sequence of Beta-secretase 1 (P56817 whole entry): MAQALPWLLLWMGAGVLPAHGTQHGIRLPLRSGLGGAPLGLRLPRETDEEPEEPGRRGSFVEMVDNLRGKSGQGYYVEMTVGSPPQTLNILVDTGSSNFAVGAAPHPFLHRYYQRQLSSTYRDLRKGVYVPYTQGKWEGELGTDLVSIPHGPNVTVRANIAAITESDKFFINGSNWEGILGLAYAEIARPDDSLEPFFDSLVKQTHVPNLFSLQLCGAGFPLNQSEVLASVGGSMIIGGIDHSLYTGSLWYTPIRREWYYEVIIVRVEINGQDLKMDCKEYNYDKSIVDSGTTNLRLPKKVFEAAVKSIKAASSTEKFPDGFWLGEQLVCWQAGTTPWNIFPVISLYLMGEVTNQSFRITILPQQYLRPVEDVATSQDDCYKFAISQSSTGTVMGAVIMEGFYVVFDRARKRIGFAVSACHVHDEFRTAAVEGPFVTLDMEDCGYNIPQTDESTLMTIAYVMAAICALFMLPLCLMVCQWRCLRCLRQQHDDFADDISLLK

SMILES	IC50 (Beta-secretase 1) [nM]	efflux ratio (P-gp)	Ratio (Caco-2)
COc1ccc2c(c1F)CCC2(Cc1ccc(C(F)(F)F)cc1)c1cn(C)c(N)n1 (stereo not given)	63	3.6	
COc1ccc(C(Cc2ccc(C(F)(F)F)cc2)c2cn(C)c(N)n2)cc1 (stereo not given)	1800		4
COc1ccc2c(c1)CCC2(Cc1ccc(C(F)(F)F)cc1)c1cn(C)c(N)n1 (stereo not given)	350		

Reference: ChEMBL document CHEMBL1155328, “A conformational constraint improves a beta-secretase inhibitor but for an unexpected reason” (Bioorg Med Chem Lett, 2009)
